Like-named read-outs stand apart in the source and are kept apart here. Numbered stars: 1 amine (or outer) side, 2 acyl side, 3 side chain; on linkers, the order of the positions; unused ones are H or OH. Bridge positions count the residues as written; N and C are the ends. Square brackets hold non-standard residues; d marks the D form. Peptide text beside a SMILES is read from it. * marks the point of attachment. hTyr(3R-OH,3'-OSO3H) = N[C@H](C(=O)O)[C@H](O)Cc1ccc(O)c(OS(=O)(=O)O)c1; X3 = O=C(c1ccc(-c2cn3nc(-c4ccc(OC5CCN(c6ccccc6)CC5)cc4)sc3n2)cc1)*; X2 = COCCCCCCN1CCN(c2ccc(-c3nn4cc(-c5ccc(C(=O)*)cc5)nc4s3)cc2)CC1; X4 = C[C@H]1CC[C@H](N2CCN(c3ccc(-c4ccc(C(=O)*)cc4)cc3)CC2)CC1; Orn(3R-OH,Nδ-CH(CH2OH)2) = N[C@H](C(=O)O)[C@H](O)CCNC(CO)CO; X1 = CCCCCOC1CCN(c2ccc(-c3nnc(-c4ccc(C(=O)*)cc4)s3)cc2)CC1; Orn(4R-OH) = O=C([C@H](C[C@@H](O)CN[*:3])N[*:1])[*:2]; Pro(3S-OH,4S-Me) = C[C@H]1CN[C@H](C(=O)O)[C@H]1O; Hyp = O=C(O)[C@@H]1C[C@@H](O)CN1

Broadly, the MIC is the least concentration at which growth counts as inhibited. Read a low MIC as inhibition by little substance.

The assay deals with Candida albicans FP-633. It counts as cell-based. As to the method: In vitro antimicrobial activity of the object compound of Examples 41, 46, 53 and 56 disclosed later was determined by MICs in mouse serum as described below.
The MICS in mouse serum were determined by the microdilution method using ICR mouse serum buffered with 20 mM HEPES buffer (pH 7.3) as a test medium. Inoculum suspension of 10^6 cells/ml were prepared by a hemocytometric procedure and diluted to obtain an inoculum size of approximately 1.0×10^3 cells/ml. Microplates were incubated at 37° C. for 24 hours in 5% CO2. The MICS were defined as the lowest concentrations at which no visible growth was observed.

Setting [1] is: Candida albicans FP-633, ICR mouse serum buffered with 20 mM HEPES (pH 7.3), 37° C., 24 hours, 5% CO2, lowest concentration with no visible growth.

Compound `COCCCCCCN1CCN(c2ccc(-c3nn4cc(-c5ccc(C(=O)N[C@H]6C[C@@H](O)CNC(=O)[C@@H]7[C@@H](O)[C@@H](C)CN7C(=O)[C@H]([C@H](O)CCNC(CO)CO)NC(=O)[C@H]([C@H](O)Cc7ccc(O)c(OS(=O)(=O)O)c7)NC(=O)[C@@H]7C[C@@H](O)CN7C(=O)[C@H]([C@@H](C)O)NC6=O)cc5)nc4s3)cc2)CC1` [Example 46] (X2-[Orn(4R-OH)]T[Hyp][hTyr(3R-OH,3'-OSO3H)][Orn(3R-OH,Nδ-CH(CH2OH)2)][Pro(3S-OH,4S-Me)]; lactam 1-C) gave an MIC (FP-633, 24 h, pH 7.3) of under 0.3 µg/mL.

For the setting “FP-633, 24 h, pH 7.3”, `CCCCCOC1CCN(c2ccc(-c3nnc(-c4ccc(C(=O)N[C@H]5C[C@@H](O)CNC(=O)[C@@H]6[C@@H](O)[C@@H](C)CN6C(=O)[C@H]([C@H](O)CCNC(CO)CO)NC(=O)[C@H]([C@H](O)Cc6ccc(O)c(OS(=O)(=O)O)c6)NC(=O)[C@@H]6C[C@@H](O)CN6C(=O)[C@H]([C@@H](C)O)NC5=O)cc4)s3)cc2)CC1` [Example 56] (X1-[Orn(4R-OH)]T[Hyp][hTyr(3R-OH,3'-OSO3H)][Orn(3R-OH,Nδ-CH(CH2OH)2)][Pro(3S-OH,4S-Me)]; lactam 1-C) returned a minimal inhibitory concentration (MIC) of under 0.3 µg/mL.

In the case of `C[C@@H](O)[C@@H]1NC(=O)[C@@H](NC(=O)c2ccc(-c3ccc(N4CCN([C@H]5CC[C@H](C)CC5)CC4)cc3)cc2)C[C@@H](O)CNC(=O)[C@@H]2[C@@H](O)[C@@H](C)CN2C(=O)[C@H]([C@H](O)CCNC(CO)CO)NC(=O)[C@H]([C@H](O)Cc2ccc(O)c(OS(=O)(=O)O)c2)NC(=O)[C@@H]2C[C@@H](O)CN2C1=O` [Example 53] (X4-[Orn(4R-OH)]T[Hyp][hTyr(3R-OH,3'-OSO3H)][Orn(3R-OH,Nδ-CH(CH2OH)2)][Pro(3S-OH,4S-Me)]; lactam 1-C), under setting [1], the MIC was under 0.3 µg/mL.

Turning to `C[C@@H](O)[C@@H]1NC(=O)[C@@H](NC(=O)c2ccc(-c3cn4nc(-c5ccc(OC6CCN(c7ccccc7)CC6)cc5)sc4n3)cc2)C[C@@H](O)CNC(=O)[C@@H]2[C@@H](O)[C@@H](C)CN2C(=O)[C@H]([C@H](O)CCNC(CO)CO)NC(=O)[C@H]([C@H](O)Cc2ccc(O)c(OS(=O)(=O)O)c2)NC(=O)[C@@H]2C[C@@H](O)CN2C1=O` [Example 41] (X3-[Orn(4R-OH)]T[Hyp][hTyr(3R-OH,3'-OSO3H)][Orn(3R-OH,Nδ-CH(CH2OH)2)][Pro(3S-OH,4S-Me)]; lactam 1-C), under setting [1], the MIC is under 0.3 µg/mL.

The record behind these values is patent US20050261177A1, “Compound” (priority 2001, published 2005).
